Legend:
[1] = Flux of membrane before and after soaking in biocide in synthetic sea water (flat sheet cell); conditions: for Initial flux: before soaking
Description: Flux and salt rejection of fresh membrane were measured before and after soaking. The membrane was placed in a flat sheet cell (Alfa Laval LabM20). The operating conditions were, feed pressure 20 bar (for sea water membrane 55 bar), salt (synthetic sea water prepared according to ASTM standard D1141), temperature 25° C. The flux measurement was done for 3 hours.
Soaking was done by mixing biocide with synthetic sea water. The concentration of the added biocide in the synthetic sea water was for PFA 14 and 84 mg/l as active substance, for peracetic acid (PAA) 7, 18 and 35 mg/l as active substance and sodium hypochlorite 20 mg/l as active substance. PFA was added to the synthetic seawater as an equilibrium solution having PFA content 14 weight-%, PAA was added as an equilibrium solution having PAA content 35 weight-% and sodium hypochlorite having concentration of 15 weight-%.
The soaking time was 24 or 144 hours. Performic acid equilibrium solution was made by mixing in 1:1 weight proportion of a solution that contained 50% hydrogen peroxide with a solution that contained 75 weight-% formic acid, 12 weight-% sulfuric acid and 13 weight-% water. After soaking membranes were placed again to the flat sheet cell and salt rejection and flux were measured at the same conditions as before soaking.

[2] = Laboratory scale continuous filtration experiment, PFA added continuously into feed
Description: The impact of PFA on membrane was further studied by a laboratory scale continuous filtration experiment. The type of membrane used in the experiment was brackish water membrane (FilmTec BW30LE).
The continuous filtration has been done in parallel. From a single brackish water tank the water was pumped to two parallel lines with flat sheet cells having similar brackish water membrane. In one line PFA was added continuously into feed and in other line (control) there was no PFA addition. The filtration conditions were as follows: pressure 15 bar, salt (sea salt): 2 g/l, Temperature: 20° C., flow rate: 48 l/h, PFA dosing rate: 6.5 g/h equilibrium solution having PFA active substance concentration 14 weight-% (=19.8 ppm active substance/l of brackish water). Flux and conductivity of permeate and concentrate were monitored and collected over time (for 30 days).

With `[Na+].[O-]Cl` [Hypochlorite, sodium hypochlorite] as the molecule, how does the “differences between flux before and after soaking” value ([1]; not told) read?
The value was over 15%.

Which Initial permeate flux ([2]; 19.8 ppm active substance continuously in feed, 15 bar, sea salt 2 g/l, 20° C.) does the source give for `O=COO` [Performic acid, performic acid] here?
Its Initial permeate flux is 250 g/h.

And the Final permeate flux ([2]; 19.8 ppm active substance continuously in feed, 30 days, 15 bar, sea salt 2 g/l, 20° C.)?
Its Final permeate flux is 250 g/h.

What about the “changes in flux over test period” value ([2]; FIG. 1 B, PFA added continuously, 30 days) of the same molecule?
Its value is “small”.

What about the Flux after soaking ([1]; 14 mg/l active substance in synthetic sea water, soaking 144 hour) of the same molecule?
Its Flux after soaking is 84.

And the Flux after soaking ([1]; 84 mg/l active substance in synthetic sea water, soaking 24 hour)?
The Flux after soaking was 95.

What about the Initial flux ([1]; membrane later soaked at 14 mg/l active substance, 144 hour) of the same molecule?
The Initial flux was 86.

What about the Initial flux ([1]; membrane later soaked at 84 mg/l active substance, 24 hour) of the same molecule?
The Initial flux was 98.

What about the “differences between flux before and after soaking” value ([1]; soaked membranes of Table 1) of the same molecule?
Its value is “less than 15%”.

With `CC(=O)OO` [Peracetic acid, peracetic acid] as the molecule, how does the Flux after soaking ([1]; 7 mg/l active substance in synthetic sea water, soaking 144 hour) read?
The Flux after soaking was 73.

And the Flux after soaking ([1]; 18 mg/l active substance in synthetic sea water, soaking 144 hour)?
Its Flux after soaking is 53.

And the Flux after soaking ([1]; 35 mg/l active substance in synthetic sea water, soaking 144 hour)?
Its Flux after soaking is 44.

What about the Initial flux ([1]; membrane later soaked at 7 mg/l active substance, 144 hour) of the same molecule?
Its Initial flux is 86.

What about the Initial flux ([1]; membrane later soaked at 18 mg/l active substance, 144 hour) of the same molecule?
The Initial flux was 91.

What about the Initial flux ([1]; membrane later soaked at 35 mg/l active substance, 144 hour) of the same molecule?
The Initial flux was 86.

— US10118131B2, “Method for preventing microbial growth on a filtration membrane” (KEMIRA OYJ, priority 2011, dated 2018)
